# Laboratory results: publication PMC8043168, “Tribolium castaneum defensin 1 kills Moraxella catarrhalisin an in vitro infection model but does not harm commensal bacteria” (Virulence, 2021)
# Ends that are not written are not given here.
# Tested on: not given
# Settings: cited from earlier work
row,Compound,cardiotoxicity
1,GWLKKIGKKIERVGQHTRDATIQTIGVAQQAANVAATLKG-NH2 [Sarcotoxin 1 C],no cytotoxicity or cardiotoxicity

# Tested on: M. catarrhalis
# Assay type: cell-based, Moraxella catarrhalis
# Settings: 12 h
# Method: Colonies of M. catarrhalis were grown on sheep blood agar plates for 12 h at 37°C and 5% CO2 before transfer to brain heart infusion (BHI) medium (Carl Roth, Karlsruhe, Germany) at an initial concentration of 1.6 × 10^7 cells/ml (OD600 = 0.08) as determined using an Ultraspec 10 cell densitometer (Amersham BioSciences, Little Chalfont, UK). Bacteria were cultivated in a shaking incubator at 37°C until the concentration reached 1.2 × 10^8 cells/ml (OD600 = 0.6) and then diluted to 2 × 10^6 cells/ml (OD600 = 0.011). To establish the optimal concentration ranges for AMP activity, defensin 1 was prepared as a two-fold dilution series from 12.5 µM to 1.56 µM and was added to the bacterial cultures, which were incubated as above for a further 16 h. Untreated cultures were used as controls. The OD600 was measured automatically at 30-min intervals using an Infinite M200 Pro plate reader (Tecan Life Sciences, Männedorf, Switzerland). […] They were cultivated for a further 15 h at 37°C and 5% CO2 in serial dilution before manual counting of the colonies on each plate.
# Table S1. Detailed characterization of tested AMPs. M.c. were grown to an Optical Density (OD) 600nm of 0.6 in Brain Heart Infusion (BHI) Medium.
# Upon dilution to OD600nm= 0.01, M.c. were incubated with declining amounts of indicated AMPs (25 μM to 0.048 μM at halving intervals) at 37°C with 5% CO2.
# OD600nm was measured at 30 min intervals to establish the minimal inhibitory concentration (MIC). pI = isoelectric point, MW = molecular weight in kiloDalton.
# MIC AMP name AMP class Organism Amino Acid Sequence pIMWPurity Retention time [min] modification
# 0.195 µM Cecropin A α-helical Hyalophora cecropia […] 10.75 4.00 91.06 7.30 n-term. amidation
# 0.39 µM Sarcotoxin IA α-helical Sarcophaga peregrina […] 11.07 4.16 91.37 9.37 n-term. amidation
# ~ 25µM Stomoxyn α-helical Stomoxys calcitrans […] 11.26 4.40 95.34 10.08 n-term. amidation
# ~ 25µM Spinigerin linear Pseudacanthotermes spiniger […] 11.07 3.00 96.23 12.45 none
# >25µM Apidaecin Ia proline-rich Apis mellifera GNNRPVYIPQPRPPHPRI 11.71 2.11 92.98 16.91 none
# >25µM Drosocin proline-rich Drosophila melanogaster GKPRPYSPRPTSHPRPIRV 12.01 2.20 92.86 11.65 none
# >25µM Pyrrhocoricin proline-rich Pyrrhocoris apterus […] 10.27 2.34 93.17 11.38 none
# >25 µM Metalnikowin-1 proline-rich Palomena prasina […] 9.98 1.84 92.85 13.36 none
# >25 µM Metalnikowin-2A proline-rich Palomena prasina […] 9.98 1.84 92.39 10.85 none
# >25 µM Metchnikowin-1 proline-rich Drosophila melanogaster […] 10.74 3.03 99.06 11.50 none
# >25 µM Metchnikowin-2 proline-rich Drolophila melanogaster […] 11.54 3.04 97.16 11.46 none
# 12.5 µM Defensin 1 disulfide stabilized Tribolium castaneum […] 9.7 4.83 90.53 18.41 none
# ~ 25 µM Cecropin-like α-helical Lucilia sericata[…] 10.35 6.66 90.28 12.01 none
# 0.195 µM Cecropin α-helical Galleria mellonella […] 10.21 4.21 93.61 12.33 n-term. amidation
# 0.37 µM Cecropin α-helical Lucilia sericata […] 10.56 4.26 94.31 10.83 n-term. amidation
# 12.5 µM Stomoxyn α-helical Lucilia sericata […] 10.73 4.38 90.37 13.35n-term. amidation n-term.
# 1.56 µM Cecropin(Sarcotoxin) α-helical Eristalis tenax […] 10.56 4.14 90.80 9.76 none
row,MIC (minimal inhibitory concentration),Compound
1,> 25 µM,DLRFLYPRGKLPVPTPPPFNPKPIYIDMGNRY [Lebocin-1]
2,> 25 µM,FVPYNPPRPGQSKPFPSFPGHGPFNPKIQWPYPLPNPGH [Abaecin]
3,12.5 µM,GFRKRFNKLVKKVKHTIKETANVSKDVAIVAGSGVAVGAAMG-NH2 [Stomoxyn (Lucilia sericata)]
4,1.56 µM,GGLKKLGKKLEGAGKRVFNAAEKALPVVAGAKALRK [Cecropin A (Aedes aegypti)]
5,> 25 µM,GKPRPYSPRPTSHPRPIRV [Drosocin]
6,> 25 µM,GNNRPVYIPQPRPPHPRI [Apidaecin Ia]
7,> 25 µM,GRPNPVNNKPTPHPRL [Formaecin-1]
8,> 25 µM,HRHQGPIFDTRPSPFNPNQPRPGPIY [Metchnikowin-1]
9,> 25 µM,HRRQGPIFDTRPSPFNPNQPRPGPIY [Metchnikowin-2]
10,~ 25 µM,HVDKKVADKVLLLKQLRIMRLLTRL [Spinigerin]
11,0.195 µM,KWKIFKKIEKAGRNIRDGIIKAGPAVSVVGEAATIYKTG-NH2 [Cecropin (Galleria mellonella)]
12,0.195 µM,KWKLFKKIEKVGQNIRDGIIKAGPAVAVVGQATQIAK-NH2 [Cecropin A (Hyalophora cecropia)]
13,> 25 µM,VDKPDYRPRPRPPNM [Metalnikowin-1]
14,> 25 µM,VDKPDYRPRPWPRPN [Metalnikowin-2A]

# Same assay, conditions: M. catarrhalis grown to OD600 0.6 in BHI, diluted to OD600 0.01; AMP 25 µM to 0.048 µM at halving intervals; 37°C, 5% CO2; OD600 every 30 min
row,Compound,MIC (minimal inhibitory concentration)
1,CC[C@H](C)[C@H](NC(=O)CNC(=O)[C@H](CC(C)C)NC(=O)CNC(=O)[C@H](CCC(N)=O)NC(=O)[C@@H](NC(=O)[C@@H](NC(=O)[C@H](C)NC(=O)[C@H](CC(=O)O)NC(=O)[C@H](CCCNC(=N)N)NC(=O)[C@@H](NC(=O)[C@H](Cc1c[nH]cn1)NC(=O)[C@H](CCC(N)=O)NC(=O)CNC(=O)[C@@H](NC(=O)[C@H](CCCNC(=N)N)NC(=O)[C@H](CCC(=O)O)NC(=O)[C@@H](NC(=O)[C@H](CCCCN)NC(=O)[C@H](CCCCN)NC(=O)CNC(=O)[C@@H](NC(=O)[C@H](CCCCN)NC(=O)[C@H](CCCCN)NC(=O)[C@H](CC(C)C)NC(=O)[C@H](Cc1c[nH]c2ccccc12)NC(=O)CN)[C@@H](C)CC)[C@@H](C)CC)C(C)C)[C@@H](C)O)[C@@H](C)O)[C@@H](C)CC)C(=O)N[C@@H](C)C(=O)N[C@@H](CCC(N)=O)C(=O)N[C@@H](CCC(N)=O)C(=O)N[C@@H](C)C(=O)N[C@@H](C)C(=O)N[C@@H](CC(N)=O)C(=O)N[C@H](C(=O)N[C@@H](C)C(=O)N[C@@H](C)C(=O)N[C@H](C(=O)N[C@@H](C)C(=O)N[C@@H](CCCNC(=N)N)C(N)=O)[C@@H](C)O)C(C)C [Sarcotoxin IA],0.39 µM
2,GFLKKIGKKLEGAVQRTRDATIQTIAVAQAAANVAATAKQ [Cecropin(Sarcotoxin)],1.56 µM
3,GWLKKIGKKIERVGQHTRDATIQTIGVAQQAANVAATLKG-NH2 [Sarcotoxin 1 C],0.37 µM
4,RGFRKHFNKLVKKVKHTISETAHVAKDTAVIAGSGAAVVAAT-NH2 [Stomoxyn (Stomoxys calcitrans)],~ 25 µM
5,SIGSAFKKALPVAKKIGKAALPIAKAALP [Ceratotoxin],> 25 µM
6,VDKGSYLPRPTPPRPIYNRN [Pyrrhocoricin],> 25 µM

# Tested on: not given
# Settings: cited from earlier work
# Remark: another data set of the same source
# Source text: We furthermore tested the effect of defensin 1 and sarcotoxin 1 C on the commensals E. faecalis and E. coli. Selectivity of AMPs may provide an important therapeutic advantage over broad-spectrum antibiotics because AMPs targeting pathogens but not commensals would avoid the common side effects of antibiotic therapy. […] Sarcotoxin 1 C was previously shown to inhibit 90% of clinical multidrug-resistant isolates of Ent ...
Compound,broad-panel off-target profile,cytotoxicity,in vitro therapeutic index
GWLKKIGKKIERVGQHTRDATIQTIGVAQQAANVAATLKG-NH2 [Sarcotoxin 1 C],inconspicuous,no cytotoxicity,good

# Tested on: mice
# Settings: dose of 10 mg/kg; cited from earlier work
row,Compound,acute toxicity in mice
1,GWLKKIGKKIERVGQHTRDATIQTIGVAQQAANVAATLKG-NH2 [Sarcotoxin 1 C],no acute toxicity
